According to patent US20230263826A1, “Compositions and Methods for Treatment and Prevention of Type 1 Diabetes” (The UAB Research Foundation, priority 2021, published 2023):

Test system: female NOD mice
Test: β cell mass and circulating insulin at sacrifice in FKGK18-treated NOD mice
Assay type: in vivo, mouse
Conditions: 8-week regimen group
Protocol: FIGS. 1A-1M show the effects of temporal FKGK18 regimen on T1D incidence and islet phenotype, wherein female NOD mice were administered FKGK18 (20 mg/kg, 3 × weekly) or vehicle (PBS-T) starting at 4 or 8 weeks of age. FIGS. 1A and 1B show diabetes incidence; blood glucose was monitored weekly in the 4-week (FIG. 1A; n = 17 and 15 for PBS-T and FKGK18 groups, respectively) and 8-week (FIG. 1B; n = 15 each in the PBS-T and FKGK18 groups) regimen groups for up to 30 weeks. Two consecutive readings of ≥ 275 mg/dL were recorded as onset of T1D (^†P < 0.05). FIGS. 1C-1F show glucose tolerance test (GTT) results, wherein overnight fasted mice were administered glucose (2 g/kg, i.p.), glucose levels in blood from tail vein were monitored over a 2-hour period, and AUC were generated. […] FIGS. 1H and 1I show β Cell mass (PBS-T, n = 15; FKGK18, n = 14) (FIG. 1H) and circulating insulin (n = 15 in each group) (FIG. 1I) were determined at sacrifice (PBS-T, 14-30 weeks of age; FKGK18, 16-36 weeks of age). FIGS. 1J and 1K show islet infiltration; paraffin sections (10 µm) of pancreas were prepared and stained with H&E. Percent infiltration for each islet was calculated as the value of noninfiltrated area subtracted from total islet area (% infiltrate = 100 × [(total area - noninfiltrated area)/(total area)]) using ImageJ software. […]

## O=C(CCCCc1ccc2ccccc2c1)C(F)(F)F [FKGK18]
  β cell mass vs PBS-T: similar
nonfasting
  circulating insulin vs PBS-T: higher
